This is an account of results in publication PMC6018746, “Activation of the p53-MDM4 regulatory axis defines the anti-tumour response to PRMT5 inhibition through its role in regulating cellular splicing” (Scientific Reports, 2018).

The nature of one series: mouse pharmacokinetics. Conditions: data not shown. In kind it is in vivo.
Series [1] can be described thus: body weight of Z-138 tumour bearing mice. Particulars: any of the treatment groups. In kind it is in vivo, mouse. The source says: Supplementary Figure S7. […] Z-138 tumour
Treatments were reinstated on day 32 for 2 weeks followed by a one week holiday.

Another series concerns SDMA in Z-138 tumors. The experiment in a line: SDMA in Z-138 tumour xenograft. The class given is in vivo, mouse. Particulars: 7 days. On the procedure: Treatment was re-instated on day 32 for 2 weeks followed by a 1 week holiday. […] QD doses evaluated include 0, 50, 100, and 200 mg/kg. […] Sampling 2 hours post last dose. […] SDMA ELISA was performed on homogenized cells and frozen tumour lysates. Fluorescence intensity generated by addition of Luminata Forte (Millipore #WBKUF0500) substrate was measured on a PerkinElmer Envision plate reader.

Structures are written as SMILES.

In turn, `CC(=O)N1CCC(Nc2cc(C(=O)NC[C@H](O)CN3CCc4ccccc4C3)ncn2)CC1` [GSK3326595] had an elimination half-life in “mouse pharmacokinetics” of 1.8 h. In series [1], the body weight result was “No significant body weight losses”. The SDMA % vehicle in the series with SDMA in Z-138 tumors (0.5 mg/kg BID) was determined as 71%; with SDMA in Z-138 tumors (1.4 mg/kg BID), 47%; with SDMA in Z-138 tumors (4.2 mg/kg BID), 28%; in the series on SDMA in Z-138 tumors (12.5 mg/kg BID), 9%; in the series on SDMA in Z-138 tumors (25 mg/kg BID), 5%; with SDMA in Z-138 tumors (50 mg/kg BID), 8%. In addition, the SDMA % vehicle in the series on SDMA in Z-138 tumors (50 mg/kg QD) came out at 16%; in the series on SDMA in Z-138 tumors (100 mg/kg BID), 2%; with SDMA in Z-138 tumors (100 mg/kg QD), 12%; in the series with SDMA in Z-138 tumors (200 mg/kg QD) it was 9%.
